“Also recorded” adds a separate entry of the source. One block for each compound: values may come before it.
Tests used:
[1] = Plasma and CSF pharmacokinetics in swine, i.v. infusion; format: in vivo, Göttingen×Yucutan miniature swine; settings: 60 min post-administration
[2] = Chemical stability of DON esters and prodrugs; format: physicochemical
[3] = In vitro liver microsomal stability, human
[4] = In vitro liver microsomal stability, pig
[5] = In vitro plasma stability, monkey plasma; settings: for PLASMA STABILITY Monkey: Table 2, prodrug 10 μM, 60 min incubation at 37° C., values read as % prodrug remaining
[6] = In vitro plasma stability, mouse plasma; settings: Table 2; prodrug 10 μM, 60 min incubation at 37° C.; values read as % prodrug remaining
[7] = In vitro plasma stability, human plasma; settings: for PLASMA STABILITY Human: Table 2, prodrug 10 μM, 60 min incubation at 37° C., values read as % prodrug remaining
U87 human glioma cells = assay: U87 flank xenograft mouse model of GBM; format: in vivo; settings: 0.8 mg/kg, i.p.; for GBM tumor growth: q.d. days 1-6
Experimental: All mouse efficacy studies were conducted according to protocol #M013M69 approved by the Animal Care and Use Committee at Johns Hopkins University. Female athymic (RH_Foxn1nu mice) mice between 25 and 30 g were obtained (Harlan Sprague Dawley Inc, Indianapolis, Ind.), and maintained on a 12 hour light-dark cycle with ad libitum access to food and water. U87 human glioma cells were injected s.c. (5×10^6 cells in […] of PBS) in four separate locations on the flanks of each mouse. When tumors grew to a mean volume of around 200 mm^3, mice were randomized into either vehicle (HEPES-buffered saline, i.p.) or DON (1; 0.8 mg/kg, i.p.). In one cohort, mice were administered a single dose of the appropriate solution two hours after which glutamine levels were quantified in the tumor as described previously.^49 In brief, tumors were harvested, snap frozen, and homogenized in liquid N2 then subjected to metabolite extraction using methanol and DI water. Quantification was performed using Agilent 6520 Quadrupole-Time-of-Flight (Q-TOF) mass spectrometer with Agilent 1290 HPLC and using Agilent Mass Hunter and Agilent Qualitative and Quantitative Analysis Software packages. Glutamine content was averaged by group for each individual tumor (n=3-4/group), depicted as relative intensity, and analyzed by one-tailed t test. In a second cohort, efficacy experiments were conducted. Mice were injected once daily for six days; tumor volumes were measured using digital calipers and calculated according to the formula: [volume=(largest tumor dimension)×(smallest tumor dimension)×0.52] at 2, 4, and 6 days after the onset of treatment. Each individual tumor (n=8-10/group) was normalized to its pretreatment volume, averaged and analyzed by repeated measures two-way analysis of variance (ANOVA). If significant, a Bonferroni post hoc test was subsequently applied. Significance was defined as p<0.05.

[8] = cited from earlier work
B16 melanoma = B16 melanoma mouse model; format: in vivo
EL4 lymphoma = assay: EL4 mouse lymphoma model; format: in vivo; settings: monotherapy
TILs = assay: CD8/Treg ratio in the tumor and hypoxia in the TILs; settings: in vivo
[9] = Brain and plasma pharmacokinetics in mice, oral; format: in vivo, C57BL/6 mice; settings: 0.8 mg/kg DON equivalent
Experimental: All pharmacokinetic studies in mice were conducted according to protocol (#M013M113) approved by the Animal Care and Use Committee at Johns Hopkins University. C57BL/6 mice between 25 and 30 g were obtained from Harlan, and maintained on a 12 hour light-dark cycle with ad libitum access to food and water. To evaluate the brain and plasma pharmacokinetics of DON and its prodrug 5c, 8-12 week old C57BL/6 were administered DON (1; 0.8 mg/kg, p.o. in phosphate-buffered saline) and its prodrug 5c (at 0.8 mg/kg equivalent DON (1), p.o. in phosphate-buffered saline with 5% EtOH and 5% Tween-80). The mice were sacrificed by pentobarbital injection at 10, 30 and 90 minutes post drug administration, and blood was collected via cardiac puncture and placed into iced EDTA coated BD microtainers. […]
We have previously published a highly sensitive method for analysis of DON in biological matrices (Alt, et al., 2015). […] The mean predicted […] for back calculated concentrations of the standards and QC's for all analytes were within the range of 85 to 115%, except for the lowest concentration which was within the range of 80 to 120% with an overall accuracy and precision of 6.7% and 6.6% respectively.
Mean concentration-time data was used for pharmacokinetic analysis. […] Area under the curve (AUC) was calculated by log-linear trapezoidal rule to the end of sample collection (AUClast).

tumor cells = assay: Oxygen consumption and lactate production of tumor cells; format: cell-based

liver microsomal stability, human [3]: moderate-high stability
liver microsomal stability, pig [4]: moderate-high stability
Structure (SMILES): CC(=O)N[C@@H](Cc1c[nH]c2ccccc12)C(=O)N[C@@H](CCC(=O)C=[N+]=[N-])C(=O)OC(C)C [Compound 60a]

liver microsomal stability, human [3]: moderate-high stability
liver microsomal stability, pig [4]: moderate-high stability
Structure (SMILES): CC(C)OC(=O)[C@H](CCC(=O)C=[N+]=[N-])NC(=O)[C@@H](N)Cc1c[nH]c2ccccc12 [Compound 38a]

stability in monkey plasma [5]: stable
stability in human plasma [7]: stable
Structure (SMILES): CCOC(=O)[C@H](CCC(=O)C=[N+]=[N-])NC(=O)OC(C)OC(=O)C(C)(C)C (stereo partly drawn) [Compound 5b]

Second part, the compound before the results:

Structure (SMILES): CC(C)OC(=O)[C@H](CCC(=O)C=[N+]=[N-])NC(=O)OC(OC(=O)C(C)(C)C)c1ccccc1 (stereo partly drawn) [Compound 47]
CSF delivery of DON [1]: substantially higher amounts of DON; also recorded: enhanced CSF delivery of DON
CSF-to-plasma ratio of DON [1]: increased CSF-to-plasma ratios; also recorded: enhanced CSF:plasma ratio of DON

Structure (SMILES): CCOC(=O)[C@@H]1CCC(C=[N+]=[N-])=N1 [Compound 9a]
chemical stability [2]: chemically stable even at acidic pH

Structure (SMILES): CCOC(=O)C(N)CCC(=O)C=[N+]=[N-] (stereo not drawn) [Compound 2a]
chemical stability [2]: unstable

Structure (SMILES): CCOC(=O)[C@H](CCC(=O)C=[N+]=[N-])NC(=O)OCc1oc(=O)oc1C [Compound 36]
PLASMA STABILITY Monkey [5]: 0%
PLASMA STABILITY Mouse [6]: 0%
PLASMA STABILITY Human [7]: 0%

Structure (SMILES): CC(C)OC(=O)[C@H](CCC(=O)C=[N+]=[N-])NC(=O)[C@@H](N)Cc1cc2ccccc2[nH]1 [Compound 38]
PLASMA STABILITY Monkey [5]: 10%
PLASMA STABILITY Mouse [6]: 0%
PLASMA STABILITY Human [7]: 30%

Structure (SMILES): [N-]=[N+]=CC(=O)CC[C@H](N)C(=O)O [DON, 6-diazo-5-oxo-L-norleucine]
glutamine metabolism in flank GBM tumor (endogenous glutamine accumulation) (U87 human glioma cells; 2 hours post-administration): inhibited glutamine metabolism
reduction in tumor volume (U87 human glioma cells; q.d.): > 50%
weight loss (U87 human glioma cells; q.d.): 12±4.1%
GBM tumor growth (U87 human glioma cells): halted tumor growth, but also effectively induced tumor regression
GBM tumor growth (U87 human glioma cells; listed as 1): dramatic reduction in tumor size
signs of toxicity (U87 human glioma cells; q.d., all mice receiving DON): hunching, ptosis, and lethargy
clinical toxicity ([8]; human, in vivo): dose limiting toxicities, many of which were GI-related
regression or stable disease in patients ([8]; late stage adult patients, children with hematological malignancies or solid tumors): > 50%
tumor infiltrating regulatory T cells (Foxp3+) (B16 melanoma; B16 melanoma): inhibiting tumor infiltrating regulatory T cells
melanoma tumor growth (B16 melanoma; monotherapy): modest effect
lymphoma tumor growth (EL4 lymphoma): markedly inhibit lymphoma growth
CD8/Treg ratio in the tumor (TILs): improved the CD8/Treg ratio
hypoxia in the TILs (TILs): reduces hypoxia in the TILs
AUC0-t of DON in brain [9]: 0.57 nmol·h/g
lactate production of tumor cells (tumor cells): reduces
oxygen consumption of tumor cells (tumor cells): reduces

Structure (SMILES): Cc1oc(=O)oc1COC(=O)N[C@@H](CCC(=O)C=[N+]=[N-])C(=O)OC(C)C [Compound 13]
PLASMA STABILITY Monkey [5]: 0%
PLASMA STABILITY Mouse [6]: 0%
PLASMA STABILITY Human [7]: 0%

Structure (SMILES): CC(C)C[C@H](N)C(=O)N[C@@H](CCC(=O)C=[N+]=[N-])C(=O)OC(C)C [Compound 9]
PLASMA STABILITY Monkey [5]: 1%
PLASMA STABILITY Mouse [6]: 0%
liver microsomal stability, human [3]: moderate-high stability
PLASMA STABILITY Human [7]: 1%
liver microsomal stability, pig [4]: moderate-high stability

Structure (SMILES): CCOC(=O)[C@H](CCC(=O)C=[N+]=[N-])NC(=O)OC(C)OC(=O)C(C)(C)C (stereo partly drawn) [Compound 32]
PLASMA STABILITY Monkey [5]: 75%
PLASMA STABILITY Mouse [6]: 0%
PLASMA STABILITY Human [7]: 88%

Structure (SMILES): CC(C)OC(=O)[C@@H]1CCC(C=[N+]=[N-])=N1 [Compound 9b]
chemical stability [2]: chemically stable even at acidic pH

Structure (SMILES): CC(C)OC(=O)[C@H](CCC(=O)C=[N+]=[N-])NC(=O)OCOC(=O)C(C)(C)C [Compound 42]
PLASMA STABILITY Monkey [5]: 0%
PLASMA STABILITY Mouse [6]: 0%
PLASMA STABILITY Human [7]: 9%

Structure (SMILES): CC(C)OC(=O)C(N)CCC(=O)C=[N+]=[N-] (stereo not drawn) [Compound 2b]
chemical stability [2]: unstable

Structure (SMILES): CCOC(=O)[C@H](CCC(=O)C=[N+]=[N-])NC(=O)[C@@H](N)Cc1cc2ccccc2[nH]1 [Compound 34]
PLASMA STABILITY Monkey [5]: 4%
PLASMA STABILITY Mouse [6]: 0%
PLASMA STABILITY Human [7]: 12%

Source: patent US11759444B2, “Methods for cancer and immunotherapy using prodrugs of glutamine analogs” (The Johns Hopkins University, priority 2015, dated 2023)
